Test results: patent US20240207422A1, “NERVE TARGETING PEPTIDE CONJUGATES AND METHODS OF USE” (Alume Biosciences, Inc., priority 2022, published 2024)

Test system: excised human nerve tissue
Assay: Phage display selection on excised human nerve tissue (Nerve2, Nerve3), NextGen sequence counts
Type: binding
Details: unique sequence count (relative enrichment)
Summary of the method: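 Randomized parent-peptide m13 phage libraries (about 50% mutation per residue) selected on washed excised human nerve tissue over multiple rounds, washing nerve pellet with PBS. NextGen sequencing of pools after rounds 2, 3 and 4; translated peptides counted by frequency, with counts 6 or greater retained.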

[1] = peptides common to Nerve2, Nerve3 and Plated Nerve 2 sets
[2] = peptides overlapping between Nerve2 and Plated Nerve2

## 12 (QHPFEQSFYVVNKF) [compound 12]
[1]
  Count: 227

## 221 (QVPWQDPVYDVNNA) [compound 221]
[2]
  Count: 65

## 25 (YVIKYAPYYAVTRS) [compound 25]
[1]
  Count: 93

## 204 (DFPWEQRSSTVKQY) [compound 204]
[2]
  Count: 67

## 212 (QIRWEDASYVEKTS) [compound 212]
[2]
  Count: 66

## 247 (DVPFRLWNFAVVDS) [compound 247]
Nerve2 only
  Count: 15

## 226 (QFAWVQPYYFAKKS) [compound 226]
[2]
  Count: 64

## 403 (QFPQGEAGYIAKSF) [compound 403]
Nerve3 only
  Count: 163

## 42 (QHTWKEPYNGQKRT) [compound 42]
[2]
  Count: 577

## 191 (DVLWEEPRYFVNNS) [compound 191]
[2]
  Count: 71

## 282 (RVPSAAAYYGAKIS) [compound 282]
Nerve2 only
  Count: 12

## 392 (LLAWDEQDYFLRKT) [compound 392]
Nerve3 only
  Count: 199

## 140 (HVPFDKSSHLVKKY) [compound 140]
[2]
  Count: 90

## 447 (SAREQGTFYFVNNS) [compound 447]
Nerve3 only
  Count: 80

## 289 (HVPGQDPYDVQATY) [compound 289]
Nerve2 only
  Count: 11

## 429 (QVSSVGPNHVVKKI) [compound 429]
Nerve3 only
  Count: 102

## 171 (QFSSAEAYTVVNES) [compound 171]
[2]
  Count: 77

## 312 (HVAWKGPYYVLETH) [compound 312]
Nerve2 only
  Count: 10

## 246 (QNPWHYPYSLVSTA) [compound 246]
Nerve2 only
  Count: 17

## 308 (HFPWEEPYHVAKRS) [compound 308]
Nerve2 only
  Count: 10

## 242 (HVGLPEPHHVMIHS) [compound 242]
Nerve2 only
  Count: 20

## 64 (VVPSNAQHLAPNMS) [compound 64]
[2]
  Count: 191

## 135 (HGAWEETHYVVIQS) [compound 135]
[2]
  Count: 94

## 363 (DVAREKPYYDMKKS) [compound 363]
Nerve3 only
  Count: 335

## 138 (QLPSGEPYSFVKES) [compound 138]
[2]
  Count: 93

## 297 (QILSEEPYYRVDMP) [compound 297]
Nerve2 only
  Count: 11

## 395 (QFLWQQPDHVRRKS) [compound 395]
Nerve3 only
  Count: 196

## 22 (RGSLEGPFKLGKTH) [compound 22]
[1]
  Count: 130

## 386 (QFQLDQSYYSFNTL) [compound 386]
Nerve3 only
  Count: 231

## 179 (LIPSEERSYAVINT) [compound 179]
[2]
  Count: 75

## 144 (HVTWGKTYHLVTDS) [compound 144]
[2]
  Count: 88

## 260 (HVPFGGTYSVEGES) [compound 260]
Nerve2 only
  Count: 13

## 198 (EHPRVESVYLFPHT) [compound 198]
[2]
  Count: 69

## 240 (QLPFIGPYHVAKKS) [compound 240]
[2]
  Count: 60

## 126 (HVPSEEPYKLDEQS) [compound 126]
[2]
  Count: 102

## 424 (ESPWAPPYYVVKKS) [compound 424]
Nerve3 only
  Count: 107

## 252 (HVLRHEPYYVVAQA) [compound 252]
Nerve2 only
  Count: 14

## 286 (HHPGVGPFHVVKRS) [compound 286]
Nerve2 only
  Count: 11

## 338 (QLPWEGKYQLGKKR) [compound 338]
Nerve2 only
  Count: 10

## 130 (QSLSEEPQYVVTPS) [compound 130]
[2]
  Count: 98

## 353 (DDIWEVPKYRPKNS) [compound 353]
Nerve3 only
  Count: 475

## 302 (QVACEQPYYNVNCS) [compound 302]
Nerve2 only
  Count: 11

## 369 (QFPLYDPYEVMPKS) [compound 369]
Nerve3 only
  Count: 310

## 250 (RVPSDEPYSFLRQS) [compound 250]
Nerve2 only
  Count: 15

## 318 (HVQWEGPYYDVKKS) [compound 318]
Nerve2 only
  Count: 10

## 49 (HVSSQEPYYVLRNS) [compound 49]
[2]
  Count: 252

## 437 (QVPYGQSFVVGTSS) [compound 437]
Nerve3 only
  Count: 90

## 96 (DVPWKESFNIVENS) [compound 96]
[2]
  Count: 126

## 441 (QFALKGLNGDFQKS) [compound 441]
Nerve3 only
  Count: 83

## 446 (QVPAREPNHIVKKS) [compound 446]
Nerve3 only
  Count: 80

## 378 (HVKRIETYYVFTKS) [compound 378]
Nerve3 only
  Count: 258

## 322 (KLPWQESYDIVRKS) [compound 322]
Nerve2 only
  Count: 10

## 334 (QLAFDGPSPILTTS) [compound 334]
Nerve2 only
  Count: 10

## 345 (QVRYVASSDLVRIP) [compound 345]
Nerve2 only
  Count: 10

## 275 (QFPWEQRNYDVKKY) [compound 275]
Nerve2 only
  Count: 12

## 362 (FVSREEPYYVVKKS) [compound 362]
Nerve3 only
  Count: 341

## 166 (QIPCQSDHNVVTNC) [compound 166]
[2]
  Count: 78

## 74 (QTQMQEPKYGVSHS) [compound 74]
[2]
  Count: 163

## 314 (HVLWVEPYYVINKY) [compound 314]
Nerve2 only
  Count: 10

## 62 (QFPWEGSYYTAKQS) [compound 62]
[2]
  Count: 193

## 442 (QFPSAETYRIVKKF) [compound 442]
Nerve3 only
  Count: 83

## 145 (LVPWEEPGYFQNTS) [compound 145]
[2]
  Count: 88

## 109 (DVPLVKPHYGAVDS) [compound 109]
[2]
  Count: 111

## 197 (DVTWEEPYYAVKNS) [compound 197]
[2]
  Count: 69

## 195 (SLPMEERYYAVRTA) [compound 195]
[2]
  Count: 71

## 330 (QFASSHTDYVADKS) [compound 330]
Nerve2 only
  Count: 10

## 112 (HVQRQETDYAAKRI) [compound 112]
[2]
  Count: 110

## 390 (HISGEDPYFILQNS) [compound 390]
Nerve3 only
  Count: 212

## 79 (QFPPEQPYGLANKS) [compound 79]
[2]
  Count: 150

## 114 (HLPFEAPYYAVKRS) [compound 114]
[2]
  Count: 109

## 86 (HVHWQVPSNIVRNS) [compound 86]
[2]
  Count: 139

## 119 (HVTYTEASVYKRTF) [compound 119]
[2]
  Count: 107

## 205 (DHTRVHPYYDFEIP) [compound 205]
[2]
  Count: 67

## 46 (QLPSYQAHDVMKVH) [compound 46]
[2]
  Count: 308

## 3 (HVTWQEQYYVLKTP) [compound 3]
[1]
  Count: 371

## 186 (SITNKQSVYVLKKS) [compound 186]
[2]
  Count: 73

## 165 (QYAREEPYYFMSYK) [compound 165]
[2]
  Count: 79

## 200 (QCPLEESCFDGQKS) [compound 200]
[2]
  Count: 69

## 180 (QHTHKQPFNVVKNY) [compound 180]
[2]
  Count: 75

## 23 (QVSSQEPNFIVKNN) [compound 23]
[1]
  Count: 116

## 104 (RVTQGSPVYGENNA) [compound 104]
[2]
  Count: 114

## 325 (LAPFEERSYALKSP) [compound 325]
Nerve2 only
  Count: 10

## 329 (NVPWSEQYNALKTS) [compound 329]
Nerve2 only
  Count: 10

## 235 (LIVSQPSYLAVQYS) [compound 235]
[2]
  Count: 61

## 210 (ESQWEQPSDVFKVV) [compound 210]
[2]
  Count: 66

## 323 (KLQWQDPDYVVKNS) [compound 323]
Nerve2 only
  Count: 10

## 106 (QIPWEAPSYGATIS) [compound 106]
[2]
  Count: 113

## 92 (QLPGDVTYNLGHKS) [compound 92]
[2]
  Count: 133

## 310 (HHPLQEPYYVVEKS) [compound 310]
Nerve2 only
  Count: 10

## 344 (QVPSENPFRVLKNL) [compound 344]
Nerve2 only
  Count: 10

## 61 (QIHFGEPNYVVKKS) [compound 61]
[2]
  Count: 194

## 348 (RLPSEALYYLVKRS) [compound 348]
Nerve2 only
  Count: 10

## 449 (QVPGNELYFVLKQY) [compound 449]
Nerve3 only
  Count: 77

## 434 (LDQWHTPNYVVRKS) [compound 434]
Nerve3 only
  Count: 92

## 209 (SVTRYDLSTDVTKS) [compound 209]
[2]
  Count: 67

## 194 (QYPAERPTFDVTNA) [compound 194]
[2]
  Count: 71

## 365 (HVVWESSHFVVIDS) [compound 365]
Nerve3 only
  Count: 329

## 328 (NLQWEQPSYVAKDY) [compound 328]
Nerve2 only
  Count: 10

## 431 (QTPWQVPGYNMLNS) [compound 431]
Nerve3 only
  Count: 99

## 99 (HLSFEEPLYGVKKS) [compound 99]
[2]
  Count: 122

## 272 (HVSSEAPYYVLNKS) [compound 272]
Nerve2 only
  Count: 12

## 283 (VFSSDSQYLFVPNF) [compound 283]
Nerve2 only
  Count: 12

## 413 (HFPLQEPYYVVKNS) [compound 413]
Nerve3 only
  Count: 127

## 346 (QVSLQEPGDVLKEF) [compound 346]
Nerve2 only
  Count: 10

## 125 (SVPGEDPSQFGKTP) [compound 125]
[2]
  Count: 103

## 410 (QVSWVYPPNDVIVS) [compound 410]
Nerve3 only
  Count: 133

## 9 (QVPAKEPYNFMKKS) [compound 9]
[1]
  Count: 299

## 418 (YSLWEDLIFNMQNS) [compound 418]
Nerve3 only
  Count: 116

## 59 (HVSGGQWVHGQKNS) [compound 59]
[2]
  Count: 200

## 20 (QYAWEEPYYLEKKL) [compound 20]
[1]
  Count: 140

## 270 (HVLWEDPYYVVRMP) [compound 270]
Nerve2 only
  Count: 12

## 66 (QIPCEGPYSGVQMC) [compound 66]
[2]
  Count: 186

## 217 (HVPWGEPEALVKKS) [compound 217]
[2]
  Count: 65

## 211 (KLPLEEPFYIVTPS) [compound 211]
[2]
  Count: 66

## 298 (QIPLAYSNYVVNKY) [compound 298]
Nerve2 only
  Count: 11

## 340 (QSQCAGPGSAYKKC) [compound 340]
Nerve2 only
  Count: 10

## 30 (RFHMVGPYNVATTS) [compound 30]
[1]
  Count: 68

## 384 (EFLGEAPYYVVSRS) [compound 384]
Nerve3 only
  Count: 236

## 48 (QFPGDERYYLATST) [compound 48]
[2]
  Count: 283

## 147 (NVTFEQSSYVVTSP) [compound 147]
[2]
  Count: 87

## 313 (HVHGAPSYSVLKHS) [compound 313]
Nerve2 only
  Count: 10

## 443 (QLTWELGYHAFVKP) [compound 443]
Nerve3 only
  Count: 83

## 264 (QFSSQEAHYELNTP) [compound 264]
Nerve2 only
  Count: 13

## 143 (RFPLEEPNYFQTKS) [compound 143]
[2]
  Count: 89

## 206 (HATLQEPYFVVNHY) [compound 206]
[2]
  Count: 67

## 35 (YVPWQEPYYVQKNL) [compound 35]
Peptides overlapping between Nerve2 and Nerve3
  Count: 49
